{"source": "patent US8952024B2", "about": "“Herbicidal pyrimidone derivatives” (E I du Pont de Nemours and Company, priority 2009, dated 2015)"}
{"tested_on": "yellow nutsedge (Cyperus esculentus)", "test": "Test B pre-/postemergence plant response", "type": "in vivo", "settings": "62 g ai/ha, postemergence; 0 is no effect, 100 is complete control; 13 to 15 days", "in_short": "(§1)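 Plants treated either at seeding (loam/sand soil) or postemergence at 2 to 18 cm height, using a surfactant-containing non-phytotoxic solvent formulation. Evaluation was visual after 13 to 15 days, 0 to 100 scale relative to controls.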"}
{"smiles": "COCCn1c(-c2cccc(Cl)c2)ncc(C(=O)C2=C(O)CCCC2=O)c1=O", "note": "[Compound 147]", "Nutsedge, Yellow plant response rating (0 to 100 scale)": 60}
{"tested_on": "yellow nutsedge (Cyperus esculentus)", "test": "Test B pre-/postemergence plant response", "type": "in vivo", "settings": "Postemergence, 31 g ai/ha; 0 to 100 scale (0 no effect, 100 complete control)", "in_short": "as §1"}
{"smiles": "COCCn1c(-c2cccc(Cl)c2)ncc(C(=O)C2=C(O)CCCC2=O)c1=O", "note": "[Compound 147]", "Plant response rating, Nutsedge, Yellow": 50}
{"tested_on": "yellow nutsedge (Cyperus esculentus)", "test": "Test B pre-/postemergence plant response", "type": "in vivo", "settings": "Postemergence, 125 g ai/ha; scale 0 to 100 (0 no effect, 100 complete control)", "in_short": "as §1"}
{"smiles": "COCCn1c(-c2cccc(Cl)c2)ncc(C(=O)C2=C(O)CCCC2=O)c1=O", "note": "[Compound 147]", "Plant response rating, Nutsedge, Yellow": 70}
{"tested_on": "yellow nutsedge (Cyperus esculentus)", "test": "Test B pre-/postemergence plant response", "type": "in vivo", "settings": "Postemergence, 250 g ai/ha; scale 0 to 100 (0 no effect, 100 complete control); 13 to 15 days", "in_short": "as §1"}
{"smiles": "COCCn1c(-c2cccc(Cl)c2)ncc(C(=O)C2=C(O)CCCC2=O)c1=O", "note": "[Compound 147]", "Plant response rating, Nutsedge, Yellow": 75}
{"tested_on": "large crabgrass (Digitaria sanguinalis)", "test": "Test B pre-/postemergence plant response", "type": "in vivo", "settings": "62 g ai/ha, postemergence; 0 is no effect, 100 is complete control; 13 to 15 days", "in_short": "as §1"}
{"smiles": "COCCn1c(-c2cccc(Cl)c2)ncc(C(=O)C2=C(O)CCCC2=O)c1=O", "note": "[Compound 147]", "Crabgrass, Large plant response rating (0 to 100 scale)": 75}
{"tested_on": "large crabgrass (Digitaria sanguinalis)", "test": "Test B pre-/postemergence plant response", "type": "in vivo", "settings": "Postemergence, 31 g ai/ha; 0 to 100 scale (0 no effect, 100 complete control)", "in_short": "as §1"}
{"smiles": "COCCn1c(-c2cccc(Cl)c2)ncc(C(=O)C2=C(O)CCCC2=O)c1=O", "note": "[Compound 147]", "Plant response rating, Crabgrass, Large": 60}
{"tested_on": "large crabgrass (Digitaria sanguinalis)", "test": "Test B pre-/postemergence plant response", "type": "in vivo", "settings": "Postemergence, 125 g ai/ha; scale 0 to 100 (0 no effect, 100 complete control)", "in_short": "as §1"}
{"smiles": "COCCn1c(-c2cccc(Cl)c2)ncc(C(=O)C2=C(O)CCCC2=O)c1=O", "note": "[Compound 147]", "Plant response rating, Crabgrass, Large": 85}
{"tested_on": "large crabgrass (Digitaria sanguinalis)", "test": "Test B pre-/postemergence plant response", "type": "in vivo", "settings": "Postemergence, 250 g ai/ha; scale 0 to 100 (0 no effect, 100 complete control); 13 to 15 days", "in_short": "as §1"}
{"smiles": "COCCn1c(-c2cccc(Cl)c2)ncc(C(=O)C2=C(O)CCCC2=O)c1=O", "note": "[Compound 147]", "Plant response rating, Crabgrass, Large": 90}
{"tested_on": "lambsquarters (Chenopodium album)", "test": "Test B pre-/postemergence plant response", "type": "in vivo", "settings": "62 g ai/ha, postemergence; 0 is no effect, 100 is complete control; 13 to 15 days", "in_short": "as §1"}
{"smiles": "COCCn1c(-c2cccc(Cl)c2)ncc(C(=O)C2=C(O)CCCC2=O)c1=O", "note": "[Compound 147]", "Lambsquarters plant response rating (0 to 100 scale)": 95}
{"tested_on": "lambsquarters (Chenopodium album)", "test": "Test B pre-/postemergence plant response", "type": "in vivo", "settings": "Postemergence, 31 g ai/ha; 0 to 100 scale (0 no effect, 100 complete control)", "in_short": "as §1"}
{"smiles": "COCCn1c(-c2cccc(Cl)c2)ncc(C(=O)C2=C(O)CCCC2=O)c1=O", "note": "[Compound 147]", "Plant response rating, Lambsquarters": 85}
{"tested_on": "lambsquarters (Chenopodium album)", "test": "Test B pre-/postemergence plant response", "type": "in vivo", "settings": "Postemergence, 125 g ai/ha; scale 0 to 100 (0 no effect, 100 complete control)", "in_short": "as §1"}
{"smiles": "COCCn1c(-c2cccc(Cl)c2)ncc(C(=O)C2=C(O)CCCC2=O)c1=O", "note": "[Compound 147]", "Plant response rating, Lambsquarters": 98}
{"tested_on": "lambsquarters (Chenopodium album)", "test": "Test B pre-/postemergence plant response", "type": "in vivo", "settings": "Postemergence, 250 g ai/ha; scale 0 to 100 (0 no effect, 100 complete control); 13 to 15 days", "in_short": "as §1"}
{"smiles": "COCCn1c(-c2cccc(Cl)c2)ncc(C(=O)C2=C(O)CCCC2=O)c1=O", "note": "[Compound 147]", "Plant response rating, Lambsquarters": 100}
{"tested_on": "woolly cupgrass (Eriochloa villosa)", "test": "Test B pre-/postemergence plant response", "type": "in vivo", "settings": "62 g ai/ha, postemergence; 0 is no effect, 100 is complete control; 13 to 15 days", "in_short": "as §1"}
{"smiles": "COCCn1c(-c2cccc(Cl)c2)ncc(C(=O)C2=C(O)CCCC2=O)c1=O", "note": "[Compound 147]", "Cupgrass, Woolly plant response rating (0 to 100 scale)": 70}
{"tested_on": "woolly cupgrass (Eriochloa villosa)", "test": "Test B pre-/postemergence plant response", "type": "in vivo", "settings": "Postemergence, 31 g ai/ha; 0 to 100 scale (0 no effect, 100 complete control)", "in_short": "as §1"}
{"smiles": "COCCn1c(-c2cccc(Cl)c2)ncc(C(=O)C2=C(O)CCCC2=O)c1=O", "note": "[Compound 147]", "Plant response rating, Cupgrass, Woolly": 65}
{"tested_on": "woolly cupgrass (Eriochloa villosa)", "test": "Test B pre-/postemergence plant response", "type": "in vivo", "settings": "Postemergence, 125 g ai/ha; scale 0 to 100 (0 no effect, 100 complete control)", "in_short": "as §1"}
{"smiles": "COCCn1c(-c2cccc(Cl)c2)ncc(C(=O)C2=C(O)CCCC2=O)c1=O", "note": "[Compound 147]", "Plant response rating, Cupgrass, Woolly": 80}
{"tested_on": "woolly cupgrass (Eriochloa villosa)", "test": "Test B pre-/postemergence plant response", "type": "in vivo", "settings": "Postemergence, 250 g ai/ha; scale 0 to 100 (0 no effect, 100 complete control); 13 to 15 days", "in_short": "as §1"}
{"smiles": "COCCn1c(-c2cccc(Cl)c2)ncc(C(=O)C2=C(O)CCCC2=O)c1=O", "note": "[Compound 147]", "Plant response rating, Cupgrass, Woolly": 80}
{"tested_on": "morningglory (Ipomoea coccinea)", "test": "Test B pre-/postemergence plant response", "type": "in vivo", "settings": "62 g ai/ha, postemergence; 0 is no effect, 100 is complete control; 13 to 15 days", "in_short": "as §1"}
{"smiles": "COCCn1c(-c2cccc(Cl)c2)ncc(C(=O)C2=C(O)CCCC2=O)c1=O", "note": "[Compound 147]", "Morningglory plant response rating (0 to 100 scale)": 50}
{"tested_on": "morningglory (Ipomoea coccinea)", "test": "Test B pre-/postemergence plant response", "type": "in vivo", "settings": "Postemergence, 31 g ai/ha; 0 to 100 scale (0 no effect, 100 complete control)", "in_short": "as §1"}
{"smiles": "COCCn1c(-c2cccc(Cl)c2)ncc(C(=O)C2=C(O)CCCC2=O)c1=O", "note": "[Compound 147]", "Plant response rating, Morningglory": 50}
{"tested_on": "morningglory (Ipomoea coccinea)", "test": "Test B pre-/postemergence plant response", "type": "in vivo", "settings": "Postemergence, 125 g ai/ha; scale 0 to 100 (0 no effect, 100 complete control)", "in_short": "as §1"}
{"smiles": "COCCn1c(-c2cccc(Cl)c2)ncc(C(=O)C2=C(O)CCCC2=O)c1=O", "note": "[Compound 147]", "Plant response rating, Morningglory": 65}
{"tested_on": "morningglory (Ipomoea coccinea)", "test": "Test B pre-/postemergence plant response", "type": "in vivo", "settings": "Postemergence, 250 g ai/ha; scale 0 to 100 (0 no effect, 100 complete control); 13 to 15 days", "in_short": "as §1"}
{"smiles": "COCCn1c(-c2cccc(Cl)c2)ncc(C(=O)C2=C(O)CCCC2=O)c1=O", "note": "[Compound 147]", "Plant response rating, Morningglory": 100}
{"tested_on": "Italian ryegrass (Lolium multiflorum)", "test": "Test B pre-/postemergence plant response", "type": "in vivo", "settings": "62 g ai/ha, postemergence; 0 is no effect, 100 is complete control; 13 to 15 days", "in_short": "as §1"}
{"smiles": "COCCn1c(-c2cccc(Cl)c2)ncc(C(=O)C2=C(O)CCCC2=O)c1=O", "note": "[Compound 147]", "Ryegrass, Italian plant response rating (0 to 100 scale)": 5}
{"tested_on": "Italian ryegrass (Lolium multiflorum)", "test": "Test B pre-/postemergence plant response", "type": "in vivo", "settings": "Postemergence, 31 g ai/ha; 0 to 100 scale (0 no effect, 100 complete control)", "in_short": "as §1"}
{"smiles": "COCCn1c(-c2cccc(Cl)c2)ncc(C(=O)C2=C(O)CCCC2=O)c1=O", "note": "[Compound 147]", "Plant response rating, Ryegrass, Italian": 5}
{"tested_on": "Italian ryegrass (Lolium multiflorum)", "test": "Test B pre-/postemergence plant response", "type": "in vivo", "settings": "Postemergence, 125 g ai/ha; scale 0 to 100 (0 no effect, 100 complete control)", "in_short": "as §1"}
{"smiles": "COCCn1c(-c2cccc(Cl)c2)ncc(C(=O)C2=C(O)CCCC2=O)c1=O", "note": "[Compound 147]", "Plant response rating, Ryegrass, Italian": 30}
{"tested_on": "Italian ryegrass (Lolium multiflorum)", "test": "Test B pre-/postemergence plant response", "type": "in vivo", "settings": "Postemergence, 250 g ai/ha; scale 0 to 100 (0 no effect, 100 complete control); 13 to 15 days", "in_short": "as §1"}
{"smiles": "COCCn1c(-c2cccc(Cl)c2)ncc(C(=O)C2=C(O)CCCC2=O)c1=O", "note": "[Compound 147]", "Plant response rating, Ryegrass, Italian": 40}
{"tested_on": "giant foxtail (Setaria faberii)", "test": "Test B pre-/postemergence plant response", "type": "in vivo", "settings": "62 g ai/ha, postemergence; 0 is no effect, 100 is complete control; 13 to 15 days", "in_short": "as §1"}
{"smiles": "COCCn1c(-c2cccc(Cl)c2)ncc(C(=O)C2=C(O)CCCC2=O)c1=O", "note": "[Compound 147]", "Foxtail, Giant plant response rating (0 to 100 scale)": 80}
{"tested_on": "giant foxtail (Setaria faberii)", "test": "Test B pre-/postemergence plant response", "type": "in vivo", "settings": "Postemergence, 31 g ai/ha; 0 to 100 scale (0 no effect, 100 complete control)", "in_short": "as §1"}
{"smiles": "COCCn1c(-c2cccc(Cl)c2)ncc(C(=O)C2=C(O)CCCC2=O)c1=O", "note": "[Compound 147]", "Plant response rating, Foxtail, Giant": 65}
